Measured values published in patent US5478818A, “Estradiol derivative-alkylating agent conjugate with reduced hormonal activity, process for preparing the same, compounds useful for the preparation thereof, and growth inhibiting composition containing the conjugate or estradiol derivative” (priority 1993, dated 1995).
Like-named read-outs stand apart in the source and are kept apart here.

How the values were obtained:
uterus = experiment: Estrogen action (uterine weight tests); type: in vivo; conditions: once hypodermically, 3-week-old Wistar female rats, 24 hours; higher = weaker estrogen action
Method: The estrogen action of the conjugate and the estradiol derivative were each examined according to the uterine weight tests. The estrogen action was found diminished.
The test compounds and estradiol dissolved in sesame oil (containing 3% benzyl alcohol) were each administered once hypodermically to 3-week-old Wistar female rats. 24 hours later, the uterus of each test rat was removed and its weight (ratio to the body weight) was measured. From the relation between the uterus weight/body weight ratio and the dosage, the compound dosage that gives a uterus weight/body weight ratio twice that in the control group was determined. The dosages of the test compounds are shown as a ratio to the dosage of estradiol. 3-Benzoyloxy-1,3,5(10)-estratriene-17β-[4-[p-[bis (2-chloroethyl)amino]phenyl]-butyryloxy]acetate was used as a comparative compound.

DU-145 cells = experiment: Growth inhibiting effect in bFGF-added system using DU-145 cells (tritium-labeled thymidine uptake); type: cell-based
Method: Uptake of tritium-labeled thymidine was examined in a serum free culture system using bFGF-dependent DU-145 cells. Strong inhibitory effects of the conjugate and the estradiol derivative were shown.
The DU-145 cells were cultured on a 96-well microplate (5,000 cells/well) for 24 hours with a culture medium (200 μl/well; Ham's F-12/MEM-E (98%) and dextran-treated fetal calf serum (2%)). Then the culture medium was replaced with fresh medium containing the test compound (Ham's F-12/MEM-E, bovine serum albumin (0.1%), bovine pituitary-derived bFGF (1 ng/ml) and the test compound of various concentrations). Culture with this medium was continued for 4 days. Thymidine (1 μci/ml, tritium-labeled) was added, and 5 hours layer, the culture medium was removed. The cells were washed with PBS and then washed twice with ice-cold trichloroacetic acid (10%). Then the cells were dissolved in 0.5N sodium hydroxide and neutralized with 0.5N hydrochloric acid. The radioactivity of the neutralized solution was measured by a liquid scintillation counter to determine the growth inhibiting effect (IC50).

SC-115 cells = experiment: Growth inhibiting effect in testosterone-added system using SC-115 cells (tritium-labeled thymidine uptake); type: cell-based
Method: Uptake of tritium-labeled thymidine was examined in a serum free culture system using testosterone-dependent SC-115 cells. Strong inhibitory effects of the conjugate and the estradiol derivatives were shown.
The SC-115 cells were cultured on a 96-well microplate (5,000 cells/well) for 24 hours with a culture medium (200 μl/well; Ham's F-12/MEM-E (98% ), dextran-treated fetal calf serum (2%) and testosterone (1×10^-8 M)). The culture medium was replaced with fresh medium containing the test compound (Ham's F-12/MEM-E, bovine serum albumin (0.1%), testosterone (1×10^-8 M) and test compound of various concentrations). The culture medium was replaced every two days, and culture was continued for 7 days. Thymidine (1 μci/ml, tritium-labeled)was added, and 5 hours later, the culture medium was removed. The cells were washed with PBS and then washed twice with ice-cold trichloroacetic acid (10%). Then the cells were dissolved in 0.5N sodium hydroxide and neutralized with 0.5N hydrochloric acid. The radioactivity of the neutralized solution was measured by a liquid scintillation counter to determine the growth inhibiting effect (IC50).

[1] = DU-145 cells, bFGF 1 ng/ml, 4 days, read-out: IC50
[2] = SC-115 cells, testosterone 1×10^-8 M, 7 days, read-out: IC50
[3] = 168 h, SC-115 cells, testosterone 1×10^-8 M, 7 days, read-out: IC50

Compound | Dosage that gives a uterus wt/body wt ratio twice that in control group (ratio to estradiol dosage) (uterus) | IC50 (DU-145 cells; [1]) [µM] | IC50 (SC-115 cells; [2]) [µM] | IC50 (DU-145 cells; Homo sapiens, DU-145, 96 h, read-out: IC50 (ND*: no inhibiting action observed)) [µM] | IC50 (SC-115 cells; 168 h) [µM] | IC50 (DU-145 cells; Homo sapiens, 96 h, DU-145 cells, bFGF 1 ng/ml, 4 days, read-out: IC50) [µM] | IC50 (SC-115 cells; [3]) [µM]
1-[3-benzoyloxy-1,3,5(10)-estratriene-1-methyl-17β-oxy]-2-[4-[p-[bis(2-hydroxyethyl)amino]phenyl]-butoxy]ethane [Compound I-3] | > 7000 ratio to estradiol dosage | 9.2 | 0.2 |  |  |  | 
C[C@]12CC[C@@H]3c4ccc(OC(=O)c5ccccc5)cc4CC[C@H]3[C@@H]1CC[C@@H]2OC(=O)COC(=O)CCCc1ccc(N(CCCl)CCCl)cc1 [Comparative compound, 3-Benzoyloxy-1,3,5(10)-estratriene-17β-[4-[p-[bis (2-chloroethyl)amino]phenyl]-butyryloxy]acetate, reference compound] | 200 ratio to estradiol dosage |  |  | > 10 | 2.6 |  | 
C[C@]12CC[C@@H]3c4ccc(OCc5ccccc5)cc4CC[C@H]3[C@@H]1CC[C@@H]2OCCOCCCCc1ccc(N(CCCl)CCCl)cc1 [Compound I-1, 1-[3-benzyloxy-1,3,5(10) -estratriene-17β-oxy]-2-[4-[p-[bis (2-chloroethyl)amino]phenyl]butoxy]ethane] | > 7000 ratio to estradiol dosage | 4.6 | 1.2 |  |  |  | 
C[C@]12CC[C@@H]3c4ccc(OC(=O)c5ccccc5)cc4CC[C@H]3[C@@H]1CC[C@@H]2OCCOCCCCc1ccc(N(CCCl)CCCl)cc1 [Compound I-2, 1-[3-benzoyloxy-1,3,5(10)-estratriene-17β-oxy]-2-[4-[p-[bis (2-chloroethyl)amino]phenyl]butoxy]ethane] | > 7000 ratio to estradiol dosage | 7.8 | 1.3 |  |  |  | 
C[C@]12CC[C@@H]3c4ccc(OC(=O)c5ccccc5)cc4CC[C@H]3[C@@H]1CC[C@@H]2OCCOCCCCc1ccc(N(CCO)CCO)cc1 [Compound I-4] | 1400 ratio to estradiol dosage |  | 0.8 |  |  |  | 
C[C@]12CC[C@@H]3c4ccc(OCc5ccccc5)cc4CC[C@H]3[C@@H]1CC[C@@H]2OCCOC(=O)CCCc1ccc(N(CCCl)CCCl)cc1 [Compound I-5, 1-[3-benzyloxy-1,3,5(10)-estratriene-17β-oxy]-2-[4-[p-[bis(2-chloroethyl)amino]phenyl]-butyryloxy]ethane] | > 7000 ratio to estradiol dosage |  | 0.5 |  |  |  | 
C[C@]12CC[C@@H]3c4ccc(OC(=O)c5ccccc5)cc4CC[C@H]3[C@@H]1CC[C@@H]2OCCOC(=O)CCCc1ccc(N(CCCl)CCCl)cc1 [Compound I-6, 1-[3-benzoyloxy-1,3,5(10)-estratriene-17β-oxy]-2-[4-[p-[bis (2-chloroethyl)amino]phenyl]-butyryloxy]ethane] | > 7000 ratio to estradiol dosage |  | 1.5 |  |  |  | 
C[C@]12CC[C@@H]3c4ccc(OCc5ccccc5)cc4CC[C@H]3[C@@H]1CC[C@@H]2OCCO [II-1, 2-[3-benzyloxy-1,3,5 (10) -estratriene-17β-oxy]ethanol] | 200 ratio to estradiol dosage |  |  |  |  | 2.9 | 0.2
Cc1cc(OCc2ccccc2)cc2c1[C@H]1CC[C@]3(C)[C@@H](OCCO)CC[C@H]3[C@@H]1CC2 [II-2, 2-[3-benzyloxy-1,3,5(10) -estratriene-1-methyl-17β-oxy]ethanol] | > 7000 ratio to estradiol dosage |  |  |  |  |  | 0.7
Cc1cc(OC(=O)c2ccccc2)cc2c1[C@H]1CC[C@]3(C)[C@@H](OCCO)CC[C@H]3[C@@H]1CC2 [II-3, 2-[3-benzoyloxy-1,3,5(10) -estratriene-1-methyl-17β-oxy]ethanol] | > 7000 ratio to estradiol dosage |  |  |  |  |  | 1.5
